Converted amounts (≈) assume the structure as drawn.
test system: Acinetobacter baumannii ATCC17978; assay: Minimal Inhibitory Concentration (MIC) assay; assay type: cell-based; settings: Acinetobacter baumannii ATCC17978; CAMHB; 20 hours at 35±2° C.; lowest concentration that inhibits visible growth; read-out: ATCC 17978 MIC
Method: Minimal Inhibitory Concentration Protocol (MIC) Assay:
Table 2 provides the in vitro potency of the compounds of present invention obtained against the strain Acinetobacter baumannii ATCC17978, which was assessed by an MIC (Minimal Inhibitory Concentration) assay as follows.
Test compounds were prepared from 10 mM DMSO stock solutions. The top dose was diluted from 10 mM to 2.5 mM by DMSO, followed by serial 2-fold 11 points dilutions in DMSO in a master plate (Greiner, Cat No: 651201). 2 μL compounds were transferred from the master plate into a new 96-well assay plate (Costar, 3599).
The growth medium […] Mueller Hinton Broth (CAMHB) was prepared by adding 22 g powder (BD, 212322) in 1 L purified water, autoclaved, and supplemented with sterilized CaCl2) (20 mg per liter) and MgCl2 (10 mg per liter).
Vials of each of the test microorganisms were maintained frozen in the vapor phase of a liquid nitrogen freezer. Took out the bacterial strain ATCC 17978 from liquid nitrogen freezer, thawed it at room temperature, and diluted the bacterial in the CAMHB medium to achieve a final inoculum of 2×10^5 CFU/mL. 98 μL of the adjusted bacteria suspension was dispensed to the assay plate and pipetted 5 times.
Then the assay plates were incubated for 20 hours at 35±2° C. in ambient air with humidity. Following incubation, MIC (μg/mL) value, the lowest concentration of drug that inhibits visible growth of the microorganism, was recorded by visual judgment of bacterial growth through magnification mirror of MIC reader, and the assay plates were photographed with Qcount system as image raw data. Meanwhile, the OD600 of assay plates was recorded with SpectraMax Plus384 as OD raw data.

Question: Which MIC does the source give for COc1cnc(-n2cc(-c3cnc(C(=O)Nc4ccc(C(=O)N5CCN(C(=O)C6CCNCC6)CC5)c(Cl)c4)n3C)c(C(F)(F)F)n2)nc1.O=CO [Example A4, N-[3-chloro-4-[4-(piperidine-4-carbonyl)piperazine-1-carbonyl]phenyl]-5-[1-(5-methoxypyrimidin-2-yl)-3-(trifluoromethyl)pyrazol-4-yl]-1-methyl-imidazole-2-carboxamide] here?
Answer: 2.19 µg/mL

Question: Which MIC does the source give for COCCOc1ccc(-n2cc(-c3cnc(C(=O)Nc4ccc(C(=O)N5CCN(C(=O)C6CCNCC6)CC5)c(Cl)c4)n3C)c(C(F)(F)F)n2)nc1.O=CO [Example A7, N-[3-chloro-4-[4-(piperidine-4-carbonyl)piperazine-1-carbonyl]phenyl]-5-[1-[5-(2-methoxyethoxy)-2-pyridyl]-3-(trifluoromethyl)pyrazol-4-yl]-1-methyl-imidazole-2-carboxamide] here?
Answer: 1.16 µg/mL

Question: Which MIC does the source give for CN(C)c1ccnc(-n2ncc(-c3cnc(C(=O)Nc4ccc(C(=O)N5CCN(C(=O)C6CCNCC6)CC5)c(Cl)c4)n3C)c2C(F)(F)F)n1.O=C(O)C(F)(F)F [Example A18, N-[3-chloro-4-[4-(piperidine-4-carbonyl)piperazine-1-carbonyl]phenyl]-5-[1-[4-(dimethylamino)pyrimidin-2-yl]-5-(trifluoromethyl)pyrazol-4-yl]-1-methyl-imidazole-2-carboxamide] here?
Answer: 2.23 µg/mL

Question: Which MIC does the source give for Cc1nn(-c2ccc(N)cn2)cc1-c1cnc(C(=O)Nc2ccc(C(=O)N3CCN(C(=O)C4CCN(C)CC4)CC3)c(Cl)c2)n1C [Example C12, 5-[1-(5-amino-2-pyridyl)-3-methyl-pyrazol-4-yl]-N-[3-chloro-4-[4-(1-methylpiperidine-4-carbonyl)piperazine-1-carbonyl]phenyl]-1-methyl-imidazole-2-carboxamide] here?
Answer: 38 µg/mL (≈ 58.8 µM)

Question: With CCc1nn(-c2ccc(N)cn2)cc1-c1cnc(C(=O)Nc2ccc(C(=O)N3CCN(C(=O)C4CCN(C)CC4)CC3)c(Cl)c2)n1C [Example C13, 5-[1-(5-amino-2-pyridyl)-3-ethyl-pyrazol-4-yl]-N-[3-chloro-4-[4-(1-methylpiperidine-4-carbonyl)piperazine-1-carbonyl]phenyl]-1-methyl-imidazole-2-carboxamide] as the molecule, how does the MIC read?
Answer: 16.5 µg/mL (≈ 25 µM)

Question: How did the MIC turn out when CN1CCC(C(=O)N2CCN(C(=O)c3ccc(NC(=O)c4ncc(-c5cn(-c6ccc(N)nn6)nc5C(F)(F)F)n4C)cc3Cl)CC2)CC1 [Example C14, 5-[1-(6-aminopyridazin-3-yl)-3-(trifluoromethyl)pyrazol-4-yl]-N-[3-chloro-4-[4-(1-methylpiperidine-4-carbonyl)piperazine-1-carbonyl]phenyl]-1-methyl-imidazole-2-carboxamide] was run?
Answer: 5.09 µg/mL (≈ 7.27 µM)

Question: Which MIC does the source give for CNc1ccc(-n2cc(-c3cnc(C(=O)Nc4ccc(C(=O)N5CCN(C(=O)[C@@H]6CCNC[C@H]6O)CC5)c(Cl)c4)n3C)c(C(F)(F)F)n2)nc1.O=CO [Example D2] here?
Answer: 1.12 µg/mL

Question: How did the MIC turn out when CNc1ccc(-n2cc(-c3cnc(C(=O)Nc4ccc(C(=O)N5CCN(C(=O)C6(O)CCNCC6)CC5)c(Cl)c4)n3C)c(C(F)(F)F)n2)nc1.O=CO [Example D3, N-[3-chloro-4-[4-(4-hydroxypiperidine-4-carbonyl)piperazine-1-carbonyl]phenyl]-1-methyl-5-[1-[5-(methylamino)-2-pyridyl]-3-(trifluoromethyl)pyrazol-4-yl]imidazole-2-carboxamide] was run?
Answer: 1.16 µg/mL

Question: How did the MIC turn out when Cn1c(-c2cn(-c3ncccn3)nc2C(F)(F)F)cnc1C(=O)Nc1ccc(C(=O)N[C@H]2[C@@H]3CN(C(=O)[C@@H]4C[C@@H](O)CN4)C[C@@H]32)c(Cl)c1.O=CO [Example F2, N-[3-chloro-4-[[(1R,5S)-3-[(2S,4R)-4-hydroxypyrrolidine-2-carbonyl]-3-azabicyclo[3.1.0]hexan-6-yl]carbamoyl]phenyl]-1-methyl-5-[1-pyrimidin-2-yl-3-(trifluoromethyl)pyrazol-4-yl]imidazole-2-carboxamide] was run?
Answer: 4.43 µg/mL

Question: Which MIC does the source give for Cn1c(-c2cn(-c3ncccn3)nc2C(F)(F)F)cnc1C(=O)Nc1ccc(C(=O)N[C@H]2[C@@H]3CN(C(=O)C4CCNCC4)C[C@@H]32)c(Cl)c1.O=CO [Example F3, N-[3-chloro-4-[[(1S,5R)-3-(piperidine-4-carbonyl)-3-azabicyclo[3.1.0]hexan-6-yl]carbamoyl]phenyl]-1-methyl-5-[1-pyrimidin-2-yl-3-(trifluoromethyl)pyrazol-4-yl]imidazole-2-carboxamide] here?
Answer: 4.41 µg/mL

same assay, conditions: Acinetobacter baumannii, ATCC17978, 20 h, read-out: ATCC 17978 MIC

Question: Which MIC does the source give for CNc1ccc(-n2cc(-c3cnc(C(=O)Nc4ccc(C(=O)N5CCN(C(=O)C6CCNCC6)CC5)c(Cl)c4)n3C)c(C(F)(F)F)n2)nc1 [Example D1, N-[3-chloro-4-[4-(piperidine-4-carbonyl)piperazine-1-carbonyl]phenyl]-1-methyl-5-[1-[5-(methylamino)-2-pyridyl]-3-(trifluoromethyl)pyrazol-4-yl]imidazole-2-carboxamide] here?
Answer: 0.55 µg/mL (≈ 0.787 µM)

test system: Acinetobacter baumannii ATCC17961; assay: 90% Growth Inhibitory Concentration (IC90) determination, antimicrobial susceptibility testing; assay type: cell-based; settings: Acinetobacter baumannii, ATCC17961, 16 h, Acinetobacter baumannii ATCC17961; Iso-Sensitest broth; growth by optical density at 600 nm over 16h; concentration inhibiting 90% of the growth; read-out: ATCC 17961 IC90
Outline: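 Broth microdilution in Iso-Sensitest medium, compounds twofold diluted (e.g. 50–0.097 μM final), inoculum ~5×10^(5) CFU/ml, 35±2° C. OD600 was read every 20 min over 16 h. IC90 was derived from growth inhibition during logarithmic growth.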

Question: Which IC90 does the source give for Cn1c(-c2cn(-c3cc(F)ncc3N)nc2C(F)(F)F)cnc1C(=O)Nc1ccc(C(=O)N2CCN(C(=O)C3CCNCC3)CC2)c(Cl)c1 [Example Z83, 5-[1-(5-amino-2-fluoro-4-pyridyl)-3-(trifluoromethyl)pyrazol-4-yl]-N-[3-chloro-4-[4-(piperidine-4-carbonyl)piperazine-1-carbonyl]phenyl]-1-methyl-imidazole-2-carboxamide] here?
Answer: 1220 nM

Question: For Cn1c(-c2cn(-c3ccc(N)nc3F)nc2C(F)(F)F)cnc1C(=O)Nc1ccc(C(=O)N2CCN(C(=O)C3CCNCC3)CC2)c(Cl)c1 [Example Z84, 5-[1-(6-amino-2-fluoro-3-pyridyl)-3-(trifluoromethyl)pyrazol-4-yl]-N-[3-chloro-4-[4-(piperidine-4-carbonyl)piperazine-1-carbonyl]phenyl]-1-methyl-imidazole-2-carboxamide], which IC90 is on record?
Answer: 230 nM

Question: How did the IC90 turn out when Cn1c(-c2cn(-c3cc(N)c([N+](=O)[O-])cn3)nc2C(F)(F)F)cnc1C(=O)Nc1ccc(C(=O)N2CCN(C(=O)C3CCNCC3)CC2)c(Cl)c1 [Example Z85, 5-[1-(4-amino-5-nitro-2-pyridyl)-3-(trifluoromethyl)pyrazol-4-yl]-N-[3-chloro-4-[4-(piperidine-4-carbonyl)piperazine-1-carbonyl]phenyl]-1-methyl-imidazole-2-carboxamide] was run?
Answer: 170 nM

Question: For Cc1nc(-n2cc(-c3cnc(C(=O)Nc4ccc(C(=O)N5CCN(C(=O)C6CCNCC6)CC5)c(Cl)c4)n3C)c(C(F)(F)F)n2)ccc1N [Example Z86, 5-[1-(5-amino-6-methylpyridin-2-yl)-3-(trifluoromethyl)pyrazol-4-yl]-N-[3-chloro-4-[4-(piperidine-4-carbonyl)piperazine-1-carbonyl]phenyl]-1-methylimidazole-2-carboxamide], which IC90 is on record?
Answer: 290 nM

Question: Which IC90 does the source give for Cn1c(-c2cn(-c3cc(N)c(N)cn3)nc2C(F)(F)F)cnc1C(=O)Nc1ccc(C(=O)N2CCN(C(=O)C3CCNCC3)CC2)c(Cl)c1 [Example Z87, N-[3-chloro-4-[4-(piperidine-4-carbonyl)piperazine-1-carbonyl]phenyl]-5-[1-(4,5-diamino-2-pyridyl)-3-(trifluoromethyl)pyrazol-4-yl]-1-methyl-imidazole-2-carboxamide] here?
Answer: 540 nM

Question: With Cn1c(-c2cn(-c3ccc(NC(=O)C4CCNCC4)cn3)nc2C(F)(F)F)cnc1C(=O)Nc1ccc(C(=O)N2CCN(C(=O)C3CCNCC3)CC2)c(Cl)c1 [Example Z88, N-[6-[4-[2-[[3-chloro-4-(4-isonipecotoylpiperazine-1-carbonyl)phenyl]carbamoyl]-3-methyl-imidazol-4-yl]-3-(trifluoromethyl)pyrazol-1-yl]-3-pyridyl]isonipecotamide] as the molecule, how does the IC90 read?
Answer: 980 nM

Question: With Cn1c(-c2cn(-c3ccc(NCCN)cn3)nc2C(F)(F)F)cnc1C(=O)Nc1ccc(C(=O)N2CCN(C(=O)C3CCNCC3)CC2)c(Cl)c1 [Example Z89, 5-[1-[5-(2-aminoethylamino)-2-pyridyl]-3-(trifluoromethyl)pyrazol-4-yl]-N-[3-chloro-4-(4-isonipecotoylpiperazine-1-carbonyl)phenyl]-1-methyl-imidazole-2-carboxamide] as the molecule, how does the IC90 read?
Answer: 100 nM

Source: patent US12679824B2 (Hoffmann-La Roche Inc., priority 2020, dated 2026)
